Measured values from patent publication US4401667A, “Cephalosporins” (Karl Thomae Gesellschaft mit beschrankter Haftung, priority 1980, dated 1983).
Values after ≈ are worked out from the molar mass of the structure shown. Like-named read-outs stand apart in the source and are kept apart here.

How the values were obtained:
[1] = tested on: Escherichia coli ATCC 11 775; experiment: serial dilution test in the microtiter system (MIC); assay type: cell-based; conditions: E. coli ATCC 11775, 37° C., 18 to 20 hours
Experimental: (§1) The tests were performed using the serial dilution test in the microtiter system. […] The nutrient medium consisted of 10 gm of peptone, 8 gm of meat extract oxoid, 3 gm of sodium chloride, and 2 gm of sec. sodium phosphate diluted with distilled water to 100 ml (pH 7.2-7.4). The age of the primary cultures was approximately 20 hours. The standardization of the bacteria suspension was effected using a photometer according to the method of Eppendorf (test tube .phi. 14 mm, filter 546 nm), using for comparison a barium sulfate suspension formed by the addition of 3.0 ml of 1% barium chloride solution to 97 ml of 1% sulfuric acid. After standardization, the test microorganisms were further diluted to a concentration of 1:1500, using a sodium chloride solution.
(§2) 16 mgm of the particular test compound were put into a 10 ml measuring flask, and the flask was subsequently filled to the mark with the solvent. The further dilution series was standardized with distilled water or the appropriate solvent.
(§3) The depressions of the microtiter plates were filled with 0.2 ml of nutrient medium. 0.01 ml of the appropriate test compound solution was then added, followed by inoculation with 0.01 ml (1 drop) of the standardized bacteria suspension. The bacteria were incubated at 37° C. for 18 to 20 hours. Control tests using only the solvent were carried out simultaneously.
(§4) The readings were made macroscopically to determine the minimum inhibitory concentration (the lowest still bacteriostatically effective concentration).
(§5) The following test organisms were used:
(§6) Staphylococcus aureus SG 511, Escherichia coli ATCC 11 775, Pseudomonas aeruginosa hamburgensis and Pseudomonas aeruginosa BC 19, Serratia marcescens ATCC 13 880, Klebsiella pneumoniae ATCC 10 031 and BC 6, Proteus mirabilis BC 17, Proteus rettgeri BC 7, Enterobacter Cloaceae ATCC 13047 and E. coli R+TEM (β-lactamase carrier).

[2] = tested on: Pseudomonas aeruginosa BC 19; experiment: as above; assay type: cell-based
Experimental: as §1, §2, §3, §4, §5, §6

[3] = tested on: Enterobacter Cloaceae ATCC 13047; experiment: as above; assay type: cell-based; conditions: Ent. cloacae ATCC 13047; 37° C., 18 to 20 hours
Experimental: as §1, §2, §3, §4, §5, §6

[4] = tested on: Staphylococcus aureus SG 511; experiment: as above; assay type: cell-based; conditions: SG511, Staph. aureus SG 511, 37° C., 18 to 20 hours
Experimental: as §1, §2, §3, §4, §5, §6

[5] = tested on: Klebsiella pneumoniae ATCC 10 031; experiment: as above; assay type: cell-based; conditions: Kl. pneum. ATCC 10031, 37° C., 18 to 20 hours
Experimental: as §1, §2, §3, §4, §5, §6

[6] = tested on: E. coli R+TEM (β-lactamase carrier); experiment: as above; assay type: cell-based; conditions: Escherichia coli
Experimental: as §1, §2, §3, §4, §5, §6

Proteus mirabilis BC 17 = experiment: as above; assay type: cell-based; conditions: BC17, Prot. mirab. BC 17, 37° C., 18 to 20 hours
Experimental: as §1, §2, §3, §4, §5, §6

[7] = tested on: Serratia marcescens ATCC 13 880; experiment: as above; assay type: cell-based; conditions: Serr. marcesc. ATCC 13880, 37° C., 18 to 20 hours
Experimental: as §1, §2, §3, §4, §5, §6

[8] = tested on: Klebsiella pneumoniae BC 6; experiment: as above; assay type: cell-based
Experimental: as §1, §2, §3, §4, §5, §6

[9] = tested on: Pseudomonas aeruginosa hamburgensis; experiment: as above; assay type: cell-based
Experimental: as §1, §2, §3, §4, §5, §6

Proteus rettgeri BC 7 = experiment: as above; assay type: cell-based; conditions: Providencia rettgeri, BC7; Prot. rettg.; 37° C., 18 to 20 hours
Experimental: as §1, §2, §3, §4, §5, §6

E. coli ATCC 11 775 = experiment: experimental E. coli infection in mice; assay type: in vivo, mice (female, NMRI strain); conditions: Escherichia coli, ATCC11, sc, 168 h, s.c. administration, once 1 hour after intraperitoneal infection, observation 7 days, read-out: ED50 (dose at which 50% of the animals survive)
Experimental: Test compounds A-D of the invention and cefuroxim were tested in vivo against experimental infections in mice. E.coli ATCC 11 775 was used as the pathogenic bacteria. An intraperitoneal infection was induced with 0.2 ml of a 5% mucin suspension of the bacteria. This corresponds to approximately 1.4×10^6 E. coli bacteria per mouse. […] The treatment was applied once (1 hour after infection). The observation period was 7 days.

[10] = BC6, Kl. pneum. BC 6, 37° C., 18 to 20 hours, read-out: MIC
[11] = Pseud. Hbg., 37° C., 18 to 20 hours, read-out: MIC
[12] = BC19, Pseud. BC 19, 37° C., 18 to 20 hours, read-out: MIC

Structure (SMILES)	MIC [1]	MIC ([2]; BC19)	MIC [3]	MIC [4]	MIC [5]	MIC [6]	MIC (Proteus mirabilis BC 17)	MIC [7]	MIC [8, 10]	MIC [9, 11]	MIC (Proteus rettgeri BC 7)	ED50 (E. coli ATCC 11 775)	MIC [9]	MIC [2, 12]	MIC ([8]; BC6)
NS(=O)(=O)c1ccc(CNc2ncc(NC(=O)N[C@@H](C(=O)N[C@@H]3C(=O)N4C(C(=O)O)=C(CSc5nnnn5CCO)CS[C@H]34)c3ccc(O)cc3)c(O)n2)s1 [B]	0.06 µg/mL (≈ 0.0719 µM)	2 µg/mL (≈ 2.4 µM)	0.25 µg/mL (≈ 0.299 µM)	1 µg/mL (≈ 1.2 µM)	0.12 µg/mL (≈ 0.144 µM)	4 µg/mL (≈ 4.79 µM)	0.12 µg/mL (≈ 0.144 µM)	0.25 µg/mL (≈ 0.299 µM)	0.25 µg/mL (≈ 0.299 µM)	4 µg/mL (≈ 4.79 µM)	0.25 µg/mL (≈ 0.299 µM)	0.4 mg/kg	–	–	–
O=C(Nc1cnc(NCc2cccnc2)nc1O)N[C@@H](C(=O)N[C@@H]1C(=O)N2C(C(=O)O)=C(CSc3nnnn3CCO)CS[C@H]12)c1ccc(O)cc1 [A, Sodium 7β-{D-α-[3-(4-hydroxy-2-(3'-pyridylmethylamino)-5-pyrimidinyl)-ureido]-p-hydroxyphenylacetamido}-3-{[1-(2'-hydroxyethyl)-tetrazol-5-yl]-thiomethyl}-ceph-3-em-4-carboxylate]	0.12 µg/mL	4 µg/mL	0.5 µg/mL	1 µg/mL	0.25 µg/mL	8 µg/mL	0.12 µg/mL	0.25 µg/mL	0.5 µg/mL	–	0.5 µg/mL	0.9 mg/kg	8 µg/mL	–	–
CS(=O)(=O)CCn1nnnc1SCC1=C(C(=O)O)N2C(=O)[C@@H](NC(=O)[C@H](NC(=O)Nc3cnc(NCc4ccco4)nc3O)c3ccc(O)cc3)[C@H]2SC1 [D, Sodium 7β-{D-α-[3-(2-(2'-furylmethylamino)-4-hydroxy-5-pyrimidinyl)-ureido]-p-hydroxyphenylacetamido}-3-{[1-(2'-methylsulfonylethyl)tetrazol-5-yl]-thiomethyl}-ceph-3-em-4-carboxylate]	0.25 µg/mL	–	0.5 µg/mL	0.5 µg/mL	0.25 µg/mL	8 µg/mL	0.25 µg/mL	0.5 µg/mL	0.5 µg/mL	8 µg/mL	1 µg/mL	1 to 2 mg/kg	–	8 µg/mL	–
CO/N=C(\C(=O)N[C@@H]1C(=O)N2C(C(=O)O)=C(COC(N)=O)CS[C@H]12)c1ccco1 [Cefuroxim, cefuroxim, reference compound]	8 µg/mL (≈ 18.9 µM)	–	32 µg/mL (≈ 75.4 µM)	1 µg/mL (≈ 2.36 µM)	2 µg/mL (≈ 4.71 µM)	4 µg/mL (≈ 9.43 µM)	0.5 µg/mL (≈ 1.18 µM)	8 µg/mL (≈ 18.9 µM)	–	–	2 µg/mL (≈ 4.71 µM)	> 100 mg/kg	–	–	4 µg/mL (≈ 9.43 µM)
NC(=O)CCn1nnnc1SCC1=C(C(=O)O)N2C(=O)[C@@H](NC(=O)[C@H](NC(=O)Nc3cnc(NCc4ccc(S(N)(=O)=O)s4)nc3O)c3ccc(O)cc3)[C@H]2SC1 [C, Sodium 7β-{D-α-[3-(2-(5'-aminosulfonyl-2'-thienylmethylamino)-4-hydroxy-5-pyrimidinyl)-ureido]-p-hydroxyphenylacetamido}-3-{[1-(2'-aminocarbonylethyl)-tetrazol-5-yl]-thiomethyl}ceph-3-em-4-carboxylate]	0.12 µg/mL	–	0.25 µg/mL	1 µg/mL	0.25 µg/mL	4 µg/mL	0.25 µg/mL	0.5 µg/mL	0.25 µg/mL	4 µg/mL	0.5 µg/mL	0.7 mg/kg	–	4 µg/mL	–
